This is an account of results in US11767296B2, “Heteroaryl compounds as kinase inhibitor” (FUJIAN HAIXI PHARMACEUTICALS CO., LTD, priority 2018, dated 2023).

Structures are written as SMILES.

In experiment [1] the test system is MC-38 transplanted tumors. The experiment in a line: Animal pharmacodynamics experiment: MC-38 transplanted tumors in C57 mice. The class given is in vivo. The settings on record: 2 weeks; for inhibition in vivo at 30 mg/kg: Mus musculus, MC-38, po, 336 h, compound alone, 30 mg/kg intragastrically daily, read-out: inhibition ratio (tumor size, MC-38 transplanted tumors); for inhibition ratio (tumor size, MC-38 transplanted tumors): compound 30 mg/kg intragastrically daily + anti-PD1 10 mg/kg i.p. once every 3 days. Here is the method: Example 55: Animal Pharmacodynamics Experiment
In this study. MC-38 cell lines were inoculated in C57 mice
Experimental animal: C57 mice, male, 5-6 weeks old (18-22 g)
Inoculation: 2×10^6/0.1 mL, Matrigel is added in 3:1 ratio
PD1: InVivoMAb anti-mouse PD-1 (CD279). BioXCell
Group: On day 4 after inoculating, all the mice were divided into 13 groups, respectively model group, the anti-PD1 2 mg/kg group, anti-PD110 mg/kg group, testing compounds alone, and the tested compound combine with anti-PD1 10 mg/kg. Compounds were intragastrically administered daily at a dose of 30 mg/kg and anti-PD1 was intraperitoneally injected once every 3 days. The drug was administered continuously for 2 weeks. In model group, 80% glycerol+20% CMC-Na was given daily.
Results: The experimental results of anti-PD1 combined with the compounds prepared in the representative example 3-52 on the inhibition of tumor size of MC-38 transplanted tumors are as follows: […]

The target of a further experiment is T1, CSF-1R (Homo sapiens, UniProt P07333).
T1 construct: purchased Invitrogen PV3249
The experiment in a line: CSF-1R kinase assay (HTRF kinEASE TK). Format: biochemical. The note with it: ATP 2.5 uM, enzyme 0.012 ng/ul, read-out: In vitro inhibitory activity of CSF-1R IC50. How it is done:
Example 53: CSF-1R Kinase Assay
I. Materials and Instruments
• 2104 EnVision® Multilabel Reader (PerkinElmer) • OptiPlate-384, White Opaque 384-well MicroPlate (Cat.6007290, PerkinElmer) • HTRF kinEASE TK (Cat.62TKOPEC, Cisbio) • CSF-1R(Cat. PV3249, Invitrogen) • ATP 10 mM (Cat. PV3227, Invitrogen) • DTT 1 M (Cat. D5545, Sigma) • MgCl2 1 M (Cat. M8266, Sigma) • MnCl2 1 M (Cat.244589. Sigma)
II. Experimental Procedure
Substrate-TK and ATP were diluted to 5 times of the reaction concentration by 1×Kinase Buffer. CSF1R enzyme was diluted to 5×enzyme solution by 1×kinase buffer. Sa-XL665 was diluted to 4×Sa-XL665 solution by Detection Buffer. 100×TK-Ab-Cryptate Solution TK-Ab-Cryptate was diluted to 100×TK-Ab-Cryptate solution by Detection Buffer. 2. Experimental Procedure After all reagents had been prepared according to the above method, except enzymes, the sample was added after equilibrium to room temperature. • a. Firstly, 2.5% DMSO solution was prepared by using 1×kinase buffer (the high concentration of DMSO will affect the reaction and control the final concentration of DMSO to 1%). Then the compounds were diluted by 2.5% DMSO solution corresponding to the enzyme. The screening concentration of the compounds was 4 times gradient dilution from 1000 nM, and 8 concentrations. In addition to the control pore, 4 microlitres of diluted solution containing 2.5% DMSO were added to the reaction pore and 4 microlitres of previously prepared solution containing 2.5% DMSO were added to the control pore. • b. 2 microlitres of previously prepared TK-biotin substrate solution was added to all reaction pore (the amount of substrate used for enzyme screening is shown in Table 15). • c. Adding 2 microlitres of CSF1R enzyme solution of corresponding concentration (the amount of enzyme is shown in Table 15) to all reaction pore except negative pore. The negative pore is supplemented with 2 microlitres of enzyme corresponding to 1 xkinase buffer. After mixing, the compound and enzyme can be fully combined by incubating at room temperature for 10 minutes. • d. Enzyme reaction was initiated by adding 2 microlitres ATP solution of corresponding concentration to all reaction pore. The reaction time was 30 minutes (the corresponding ATP concentration and reaction time at enzyme screening were shown in Table 15). • e. Preparing the test solution 5 minutes before the end of kinase reaction. Streptavidin-XL665 and TK antibody europium cryptate (1:100) were prepared with detection buffer in the kit (the corresponding concentration of detection reagent for enzyme screening is shown in Table 15). • f. After the kinase reaction, 5 microlitres of diluted Streptavidin-XL665 were added to all reaction pore, mixing, and then the diluted TK antibody europium cryptate solution was added immediately. • g. After 1 hour reaction at room temperature, the fluorescence signals (320 nm stimulation, 665 nm, 615 nm emission) were detected by ENVISION (Perkinelmer) instrument. The inhibition rate of each pore was calculated by full active pore and background signal pore, and the average value of complex pore was obtained. Meanwhile, the half inhibitory activity (IC50) of each compound was fitted by professional drawing analysis software PRISM 5.0. The Flow Chart of the Experiment is as Follows:
3. Data Analysis Emission Ratio (ER)=665 nm Emission signal/615 nm Emission signal Inhibitory rate=(ERpositive−ERsample)/(ERpositive−ERnegative)*100% Using Graphpad Prism 5 and log (inhibitor) vs. normalized response to fit IC50 curve and calculate IC50 value. The IC50 data of the compounds prepared in Representative Examples 3-52 are as follows (Table 18): […]
(In general: In TR-FRET formats the signal depends on donor and acceptor labels being close together.)

A further experiment deals with NFS-60 cells. The experiment can be described thus: NFS-60 cell assay (CCK proliferation, M-CSF stimulated). Format: cell-based. The note with it: Mus musculus, compound 0.5 uM, 72 h, 40 ng/mL M-CSF, read-out: inhibition ratio % (NFS-60 cell proliferation). Here is the method:
Example 54: NFS-60 Cell Assay
1. Experimental Materials
Mouse Myelogenous Leukemia Cells (NFS-60)
Using DMSO to dissolve, and the required concentration was prepared with full culture medium without factors.
Penicillin-streptomycin: TRANS
Mouse M-CSF/CSF-1 Protein: Sino Biological Inc, No. 51112-MNAH
M-CSF: Qilu Pharmaceutical co., Ltd.
The logarithmic growth phase of NFS-60 cells (1640+10% FBS+40 ng/ml M-CSF+1% Penicillin-streptomycin) were centrifuged (1000 r/min) and cultured in a factor-free medium at 37° C., 5% CO2 for 24 hours. Centrifugating (1000 r/min), the culture medium was replaced by new culture medium including 40 ng/mL factors, and inoculated on 96-well plate by 2*10^4 cells/mL, 100 μL/hole. After 16 hours, the tested compounds were added 10 μL/hole, 3 duplicate holes per compound, 37° C., 5% CO2, continue to cultured for 72 h. Then 10 μL CCK reagent was added to each hole. After incubation for 4 hours, the absorbance of each hole was measured at 450 nm wavelength. According to Formula: Inhibitory rate (%)=(1-OD value of test pore/OD value of solvent control pore)×100% 3. Experimental Results The experimental results of the inhibition of NFS-60 cell proliferation by the compounds prepared in Example 3-52, 0.5 uM, are shown in the following table: […]

T1 sequence (P07333 20-972): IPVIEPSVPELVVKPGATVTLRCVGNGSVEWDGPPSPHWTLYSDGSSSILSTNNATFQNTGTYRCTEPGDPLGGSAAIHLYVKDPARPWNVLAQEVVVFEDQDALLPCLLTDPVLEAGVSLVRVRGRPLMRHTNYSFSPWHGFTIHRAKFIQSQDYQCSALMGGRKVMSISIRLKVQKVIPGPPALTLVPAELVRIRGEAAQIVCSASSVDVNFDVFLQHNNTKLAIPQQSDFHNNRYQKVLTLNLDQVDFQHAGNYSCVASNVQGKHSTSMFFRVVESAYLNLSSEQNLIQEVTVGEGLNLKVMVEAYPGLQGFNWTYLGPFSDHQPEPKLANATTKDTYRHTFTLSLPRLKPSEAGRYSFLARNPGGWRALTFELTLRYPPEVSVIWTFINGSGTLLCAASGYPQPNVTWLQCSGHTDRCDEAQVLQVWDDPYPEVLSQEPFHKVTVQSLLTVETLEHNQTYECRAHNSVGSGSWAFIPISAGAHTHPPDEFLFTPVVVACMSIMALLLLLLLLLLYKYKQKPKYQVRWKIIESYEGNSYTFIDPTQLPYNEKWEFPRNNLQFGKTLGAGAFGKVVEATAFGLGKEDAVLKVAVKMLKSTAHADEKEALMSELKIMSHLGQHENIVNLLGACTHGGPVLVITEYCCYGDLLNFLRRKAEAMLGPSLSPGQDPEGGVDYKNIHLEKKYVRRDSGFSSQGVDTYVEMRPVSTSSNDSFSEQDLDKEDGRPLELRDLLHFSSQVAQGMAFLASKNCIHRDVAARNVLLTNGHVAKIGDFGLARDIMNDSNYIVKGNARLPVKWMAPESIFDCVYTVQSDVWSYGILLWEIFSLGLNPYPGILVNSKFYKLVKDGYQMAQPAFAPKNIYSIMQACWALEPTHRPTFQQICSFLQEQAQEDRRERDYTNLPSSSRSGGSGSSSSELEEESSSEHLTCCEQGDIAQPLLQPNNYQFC

As usually defined, the IC50 is the concentration that gives 50% inhibition. As for `Cc1cccc(C(=O)Nc2cccc([C@@H](C)Oc3cc(Cl)cnc3N)c2)c1Cl` [Compound 85, (R)-N-(3-(1-((2-amino-5-chloropyridin-3-yl)oxy)ethyl)-phenyl)-2-chloro-3-methylbenzamide], in experiment [1], the inhibition in vivo at 30 mg/kg was under 10% and the “inhibition ratio (tumor size, MC-38 transplanted tumors)” value (“inhibition ratio” for short) is on record as “+++ (+++: ≥30%)”. Besides, on CSF-1R, the IC50 is at most 50 nM.

In the case of `Cc1cccc(C(=O)Nc2cccc([C@@H](C)Oc3cc(Cl)cnc3N)c2)c1` [Compound 72, (R)-N-(3-(1-((2-amino-5-chloropyridin-3-yl)oxy)ethyl)-phenyl)-3-methylbenzamide], in experiment [1], the inhibition in vivo at 30 mg/kg is under 10% and the “inhibition ratio” value is “++ (++: 10%-30%)”. Also, in the experiment with NFS-60 cells, the inhibition at 0.5 µM is at least 50%. Besides, the IC50 at CSF-1R is at most 50 nM.

For the compound `CSc1cc(C(=O)Nc2cccc([C@@H](C)Oc3cc(-c4cnn(C)c4)cnc3N)c2)ccc1C` [Compound 182, (R)-N-(3-(1-((2-amino-5-(1-methyl-1H-pyrazol-4-yl)pyridin-3-yl)oxy)ethyl)phenyl)-4-methyl-3-(methylthio)benzamide], in experiment [1], the inhibition in vivo at 30 mg/kg was 10 to 30% and the “inhibition ratio” value is reported as “+++ (+++: ≥30%)”. In addition, the inhibition at 0.5 µM in the experiment on NFS-60 cells is at least 50%. Also, the IC50 at CSF-1R is at most 50 nM.

Turning to `C[C@@H](Oc1cc(Cl)cnc1N)c1cccc(NC(=O)c2cccc(S(C)(=O)=O)c2)c1` [Compound 78, (R)-N-(3-(1-((2-amino-5-chloropyridin-3-yl)oxy)ethyl)-phenyl)-3-(methylsulfonyl)-benzamide], in experiment [1], the inhibition in vivo at 30 mg/kg was under 10% and the “inhibition ratio” value is “++ (++: 10%-30%)”. For the same compound, the IC50 at CSF-1R is at most 50 nM.

Regarding `Cc1ccc(C(=O)Nc2cccc([C@@H](C)Oc3cc(-c4cnn(C)c4)cnc3N)c2)cc1N(C)C` [Compound 179, (R)-N-(3-(1-((2-amino-5-(1-methyl-1H-pyrazol-4-yl)pyridin-3-yl)oxy)ethyl)phenyl)-3-(dimethylamino)-4-methylbenzamide], in experiment [1], the inhibition in vivo at 30 mg/kg fell in the range of 10 to 30% and the “inhibition ratio” value was “+++ (+++: ≥30%)”. Moreover, the inhibition at 0.5 µM in the experiment with NFS-60 cells is at least 50%. In addition, on CSF-1R, the IC50 was at most 50 nM.

`C[C@@H](Oc1cc(Cl)cnc1N)c1cccc(NC(=O)c2cccc(C3CC3)c2)c1` [Compound 86, (R)-N-(3-(1-((2-amino-5-chloropyridin-3-yl)oxy)ethyl)-phenyl)-3-cyclopropylbenzamide]: in experiment [1], the inhibition in vivo at 30 mg/kg was under 10% and the “inhibition ratio” value is “+++ (+++: ≥30%)”. In addition, the IC50 on CSF-1R was at most 50 nM.

On to `Cc1cncc(C(=O)Nc2cccc([C@@H](C)Oc3cc(Cl)cnc3N)c2)c1` [Compound 83, (R)-N-(3-(1-((2-amino-5-chloropyridin-3-yl)oxy)ethyl)-phenyl)-5-methylnicotinamide], for which, in experiment [1], the inhibition in vivo at 30 mg/kg was under 10% and the “inhibition ratio” value is “+++ (+++: ≥30%)”. The IC50 on CSF-1R was at most 50 nM.

Regarding `C[C@@H](Oc1cc(-c2cnn(C)c2)cnc1N)c1cccc(NC(=O)c2cccc(N(C)C)c2)c1` [Compound 178, (R)-N-(3-(1-((2-amino-5-(1-methyl-1H-pyrazol-4-yl)pyridin-3-yl)oxy)ethyl)phenyl)-3-(dimethylamino)benzamide], in experiment [1], the inhibition in vivo at 30 mg/kg is 10 to 30% and the “inhibition ratio” value is listed as “+++ (+++: ≥30%)”. The inhibition at 0.5 µM with NFS-60 cells is at least 50%. Also, at CSF-1R, the IC50 is at most 50 nM.
